Experimental data reported in US20230121313A1 (priority 2019, published 2023).

System: subjects with MDD at imminent risk for suicide
Conditions: 84 mg
[1] = human, in vivo, other: intranasal

From the text: Among 68 randomized subjects, 66 were included in the safety analysis set (defined as receiving at least one dose of study medication in the double-blind phase). […] All safety subjects (N=66) were included in the intent-to-treat (ITT) analysis set (defined as receiving at least one dose of study medication during the double-blind phase and having both the baseline and the Day 1, 4-hour postdose evaluation for the MADRS total score). Forty-nine subjects were included in the safety (FU) analysis set (defined as all subjects who have at least 1 visit during the follow up phase).

Structure (SMILES): CN[C@]1(c2ccccc2Cl)CCCCC1=O [esketamine, (S)-2-(2-chlorophenyl)-2-(methylamino)cyclohexanone]
- TEAE leading to study discontinuation: Cardiac disorders, subjects (%) (double-blind phase, N = 35): 2.9%
- TEAE leading to study discontinuation: Dizziness, subjects (%) (double-blind phase, N = 35): 2.9%
- TEAE leading to study discontinuation: Dysgeusia, subjects (%) (double-blind phase, N = 35): 2.9%
- TEAE leading to study discontinuation: Dyspnea, subjects (%) (double-blind phase, N = 35): 2.9%
- TEAE leading to study discontinuation: Gastrointestinal disorders, subjects (%) (double-blind phase, N = 35): 2.9%
- TEAE leading to study discontinuation: Nausea, subjects (%) (double-blind phase, N = 35): 2.9%
- TEAE leading to study discontinuation: Nervous system disorders, subjects (%) (double-blind phase, N = 35): 5.7%
- TEAE leading to study discontinuation: Psychiatric disorders, subjects (%) (double-blind phase, N = 35): 5.7%
- TEAE leading to study discontinuation: Respiratory, thoracic and mediastinal disorders, subjects (%) (double-blind phase, N = 35): 2.9%
- TEAE leading to study discontinuation: Ventricular extrasystoles, subjects (%) (double-blind phase, N = 35): 2.9%
- Total no. subjects with TEAE leading to study discontinuation (%) (double-blind phase, N = 35): 14.3%
- Subjects with possibly related TEAE (%) (double-blind phase, N = 35, possible, probable, very likely): 82.9%
- AE Abdominal pain, subjects (%) (follow up phase, N = 27): (3.7%)
- AE Abdominal tenderness, subjects (%) (follow up phase, N = 27): (3.7%)
- AE Back pain, subjects (%) (follow up phase, N = 27): (3.7%)
- AE Cogwheel rigidity, subjects (%) (follow up phase, N = 27): (3.7%)
- AE Contusion, subjects (%) (follow up phase, N = 27): (3.7%)
- AE Depression, subjects (%) (follow up phase, N = 27): (3.7%)
- AE Diarrhea, subjects (%) (follow up phase, N = 27): (3.7%)
- AE Dizziness, subjects (%) (follow up phase, N = 27): (3.7%)
- AE Dry mouth, subjects (%) (follow up phase, N = 27): (7.4%)
- AE Dysgeusia, subjects (%) (follow up phase, N = 27): (3.7%)
- AE Ear infection, subjects (%) (follow up phase, N = 27): (3.7%)
- AE Epistaxis, subjects (%) (follow up phase, N = 27): (3.7%)
- AE Flank pain, subjects (%) (follow up phase, N = 27): (3.7%)
- AE Gastrointestinal disorders, subjects (%) (follow up phase, N = 27): (22.2%)
- AE Headache, subjects (%) (follow up phase, N = 27): (7.4%)
- AE Infections and infestations, subjects (%) (follow up phase, N = 27): (11.1%)
- AE Injury, poisoning and procedural complications, subjects (%) (follow up phase, N = 27): (7.4%)
- AE Insomnia, subjects (%) (follow up phase, N = 27): (11.1%)
- AE Intentional self-injury, subjects (%) (follow up phase, N = 27): (3.7%)
- AE Loss of consciousness, subjects (%) (follow up phase, N = 27): (3.7%)
- AE Migraine, subjects (%) (follow up phase, N = 27): (3.7%)
- AE Musculoskeletal and connective tissue disorders, subjects (%) (follow up phase, N = 27): (7.4%)
- AE Musculoskeletal chest pain, subjects (%) (follow up phase, N = 27): (3.7%)
- AE Musculoskeletal pain, subjects (%) (follow up phase, N = 27): (3.7%)
- AE Nasal congestion, subjects (%) (follow up phase, N = 27): (3.7%)
- AE Nasopharyngitis, subjects (%) (follow up phase, N = 27): (3.7%)
- AE Neck pain, subjects (%) (follow up phase, N = 27): (3.7%)
- AE Nervous system disorders, subjects (%) (follow up phase, N = 27): (22.2%)
- AE Night sweats, subjects (%) (follow up phase, N = 27): (3.7%)
- AE Pelvic pain, subjects (%) (follow up phase, N = 27): (3.7%)
- AE Pharyngitis, subjects (%) (follow up phase, N = 27): (7.4%)
- AE Psychiatric disorders, subjects (%) (follow up phase, N = 27): (18.5%)
- AE Reproductive system and breast disorders, subjects (%) (follow up phase, N = 27): (3.7%)
- AE Respiratory, thoracic and mediastinal disorders, subjects (%) (follow up phase, N = 27): (7.4%)
- AE Restlessness, subjects (%) (follow up phase, N = 27): (3.7%)
- AE Road traffic accident, subjects (%) (follow up phase, N = 27): (3.7%)
- AE Sedation, subjects (%) (follow up phase, N = 27): (3.7%)
- AE Skin and subcutaneous tissue disorders, subjects (%) (follow up phase, N = 27): (3.7%)
- AE Suicidal ideation, subjects (%) (follow up phase, N = 27): (3.7%)
- AE Tremor, subjects (%) (follow up phase, N = 27): (7.4%)
- AE Upper respiratory tract infection, subjects (%) (follow up phase, N = 27): (3.7%)
- AE Vomiting, subjects (%) (follow up phase, N = 27): (3.7%)
- AE Vulvovaginal mycotic infection, subjects (%) (follow up phase, N = 27): (3.7%)
- Serious AE: Psychiatric disorders, subjects (%) (follow up phase, N = 27): 3.7%
- Serious AE: Suicidal ideation, subjects (%) (follow up phase, N = 27): 3.7%
- Total no. subjects with a serious adverse event (%) (follow up phase, N = 27): 3.7%
- Total no. subjects with adverse events (%) (follow up phase, N = 27): (48.1%)
- Subjects who discontinued from the double-blind phase due to adverse events [1]: 5 subjects
- Subjects with at least one TEAE [1]: 94.3%
- Subjects with at least one adverse event [1]: 48.1%
- TEAE dissociation, % of subjects [1]: 31.4%
- TEAE dizziness, % of subjects [1]: 34.3%
- TEAE dysgeusia, % of subjects [1]: 31.4%
- TEAE headache, % of subjects [1]: 31.4%
- TEAE nausea, % of subjects [1]: 37.1%
- TEAE vomiting, % of subjects [1]: 20.0%
- Subjects with a serious adverse event (human, in vivo, other: intranasal, 56 day): 1
